Test results: patent publication US5446057A, “Substituted tetrahydropyridine and piperidine carboxylic acids as muscarinic antagonists” (priority 1993, dated 1995)
pIC50: −log10 of the molar value.

What was measured:
m2 receptor = biological target: T1, m2 receptor (Homo sapiens, UniProt P08172); assay: [3H]-NMS receptor binding using membranes from CHO cells expressing cloned human muscarinic receptor m2; details: [3H]-NMS 100 pM, pH 7.4, 120 minutes at 25° C.
T1 construct: expressed in transfected cells; host or cells: CHO cells (membranes)
T1 sequence (P08172 1-466): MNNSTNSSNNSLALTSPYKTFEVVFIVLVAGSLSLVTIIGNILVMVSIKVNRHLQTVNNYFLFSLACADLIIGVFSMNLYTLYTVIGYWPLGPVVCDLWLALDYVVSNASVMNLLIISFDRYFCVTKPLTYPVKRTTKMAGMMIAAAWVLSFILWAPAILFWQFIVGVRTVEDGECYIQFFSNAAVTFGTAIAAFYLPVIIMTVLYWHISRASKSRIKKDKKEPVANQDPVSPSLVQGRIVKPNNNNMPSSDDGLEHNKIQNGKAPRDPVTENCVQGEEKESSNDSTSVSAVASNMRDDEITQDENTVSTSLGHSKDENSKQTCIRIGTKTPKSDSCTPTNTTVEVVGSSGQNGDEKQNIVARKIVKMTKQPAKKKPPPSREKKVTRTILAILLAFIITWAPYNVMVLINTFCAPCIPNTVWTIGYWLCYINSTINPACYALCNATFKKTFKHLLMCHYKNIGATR
Method: (§1) [^3 H]-N-methylscopolamine ([^3 H]-NMS) Receptor Binding Using Membranes From Chinese Hamster Ovary (CHO) Cells Selectively Expressing One of the Five Cloned Human Muscarinic Receptors
(§2) Following membrane harvest and storage at -80° C., aliquots of membranes (approximately 10-40 μg protein) are added to 2 mL of 10 mM sodium potassium phosphate buffer, pH 7.4, containing 100 pM [^3 H]-NMS; (78.9 Ci/mmol) and the appropriate test compound. Nonspecific binding is defined as that unaffected by the inclusion of 1 μM atropine. The reaction is initiated by the addition of the membranes and allowed to proceed for 120 minutes at 25° C. with shaking. Termination of the incubation is achieved by rapid vacuum filtration through GF/B Whatman filters using a Brandel Cell Harvester with the filters being washed three times with 5 mL ice-chilled buffer. 10 mL of Beckman Ready Gel scintillation cocktail are added to the filters in vials and the samples are allowed to set overnight before vortexing and counting in a Beckman 800 scintillation counter. IC50 values are calculated using a logit equation.

m4 receptor = biological target: T2, m4 receptor (Homo sapiens, UniProt P08173); assay: [3H]-NMS receptor binding using membranes from CHO cells expressing cloned human muscarinic receptor m4; details: [3H]-NMS 100 pM, pH 7.4, 120 minutes at 25° C.
T2 construct: expressed in transfected cells; host or cells: CHO cells (membranes)
T2 sequence (P08173 1-479): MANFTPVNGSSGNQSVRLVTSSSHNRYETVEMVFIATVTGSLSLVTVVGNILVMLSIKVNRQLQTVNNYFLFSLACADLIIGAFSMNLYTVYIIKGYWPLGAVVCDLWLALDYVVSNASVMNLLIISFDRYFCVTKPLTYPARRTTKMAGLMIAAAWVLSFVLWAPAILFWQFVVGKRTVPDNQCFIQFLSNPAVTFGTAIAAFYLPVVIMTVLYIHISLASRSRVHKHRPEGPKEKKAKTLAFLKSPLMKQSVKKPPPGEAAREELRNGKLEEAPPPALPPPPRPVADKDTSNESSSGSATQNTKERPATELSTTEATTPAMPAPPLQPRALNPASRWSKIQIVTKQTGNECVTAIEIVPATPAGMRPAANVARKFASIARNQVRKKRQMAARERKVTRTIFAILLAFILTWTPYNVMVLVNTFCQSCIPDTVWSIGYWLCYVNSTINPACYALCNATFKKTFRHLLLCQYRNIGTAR
Method: as §1, §2

m1 receptor = biological target: T3, m1 receptor (Homo sapiens, UniProt P11229); assay: [3H]-NMS receptor binding using membranes from CHO cells expressing cloned human muscarinic receptor m1; details: [3H]-NMS 100 pM, pH 7.4, 120 minutes at 25° C.
T3 construct: expressed in transfected cells; host or cells: CHO cells (membranes)
T3 sequence (P11229 1-460): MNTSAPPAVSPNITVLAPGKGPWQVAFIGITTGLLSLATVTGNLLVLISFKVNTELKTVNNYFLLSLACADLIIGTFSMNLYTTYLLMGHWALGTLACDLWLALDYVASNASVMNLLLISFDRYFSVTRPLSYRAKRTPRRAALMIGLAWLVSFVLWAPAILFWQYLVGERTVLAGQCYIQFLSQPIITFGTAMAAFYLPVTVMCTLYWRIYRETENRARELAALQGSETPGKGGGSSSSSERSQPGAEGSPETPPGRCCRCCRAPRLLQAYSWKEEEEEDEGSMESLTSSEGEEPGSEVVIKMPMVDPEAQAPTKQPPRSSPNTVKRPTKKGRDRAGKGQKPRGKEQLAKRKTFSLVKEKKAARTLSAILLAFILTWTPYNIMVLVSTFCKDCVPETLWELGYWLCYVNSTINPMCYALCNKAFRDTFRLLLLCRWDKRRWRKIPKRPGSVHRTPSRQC
Method: as §1, §2

m3 receptor = m3 receptor (Homo sapiens, UniProt P20309); assay: [3H]-NMS receptor binding using membranes from CHO cells expressing cloned human muscarinic receptor m3; details: [3H]-NMS 100 pM, pH 7.4, 120 minutes at 25° C.
m3 receptor, sequence (P20309 whole entry): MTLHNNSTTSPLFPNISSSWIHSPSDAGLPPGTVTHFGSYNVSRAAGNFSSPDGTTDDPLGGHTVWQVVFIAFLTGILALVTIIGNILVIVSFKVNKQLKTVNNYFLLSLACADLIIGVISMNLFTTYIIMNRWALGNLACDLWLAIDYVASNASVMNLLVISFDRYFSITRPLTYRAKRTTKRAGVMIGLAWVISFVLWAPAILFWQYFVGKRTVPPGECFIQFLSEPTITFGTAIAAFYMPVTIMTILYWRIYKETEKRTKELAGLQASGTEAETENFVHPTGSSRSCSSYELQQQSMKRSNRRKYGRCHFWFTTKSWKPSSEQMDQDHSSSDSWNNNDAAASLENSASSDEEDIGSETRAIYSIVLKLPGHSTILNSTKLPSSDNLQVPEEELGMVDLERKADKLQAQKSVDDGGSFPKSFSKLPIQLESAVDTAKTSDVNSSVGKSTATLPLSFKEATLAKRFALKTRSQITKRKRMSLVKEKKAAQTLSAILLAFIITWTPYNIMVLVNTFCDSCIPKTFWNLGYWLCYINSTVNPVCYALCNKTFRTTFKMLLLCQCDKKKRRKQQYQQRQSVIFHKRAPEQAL
Method: as §1, §2

m5 receptor = biological target: T4, m5 receptor (Homo sapiens, UniProt P08912); assay: [3H]-NMS receptor binding using membranes from CHO cells expressing cloned human muscarinic receptor m5; details: [3H]-NMS 100 pM, pH 7.4, 120 minutes at 25° C.
T4 construct: expressed in transfected cells; host or cells: CHO cells (membranes)
T4 sequence (P08912 1-532): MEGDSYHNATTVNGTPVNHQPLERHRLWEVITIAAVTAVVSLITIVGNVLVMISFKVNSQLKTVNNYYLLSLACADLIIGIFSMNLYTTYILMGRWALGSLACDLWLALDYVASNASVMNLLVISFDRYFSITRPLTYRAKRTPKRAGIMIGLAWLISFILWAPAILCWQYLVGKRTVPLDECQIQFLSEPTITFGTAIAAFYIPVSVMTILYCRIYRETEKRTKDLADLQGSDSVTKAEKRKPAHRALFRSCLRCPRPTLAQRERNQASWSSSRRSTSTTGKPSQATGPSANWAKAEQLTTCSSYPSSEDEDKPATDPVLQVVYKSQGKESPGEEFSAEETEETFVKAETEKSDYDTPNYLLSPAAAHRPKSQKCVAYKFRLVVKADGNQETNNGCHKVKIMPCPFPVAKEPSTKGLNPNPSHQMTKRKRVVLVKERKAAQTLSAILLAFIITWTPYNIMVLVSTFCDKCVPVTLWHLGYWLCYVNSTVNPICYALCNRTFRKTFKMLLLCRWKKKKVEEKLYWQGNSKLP
Method: as §1, §2

M3 receptors = details: literature; cited from earlier work
[1] = urinary incontinence; cited from earlier work
[2] = test system: patients with effort myocardial ischemia; details: cited from earlier work
M2 receptors = details: literature; cited from earlier work
Hm1 = biological target: T5, Hm1 (Homo sapiens, UniProt P11229); assay type: cell-based
T5 construct: expressed in transfected cells; host or cells: CHO Hm1 cells
T5 sequence (P11229 1-460): T3 sequence (P11229 1-460)
Method: CHO Hm1, Hm3, or Hm5 cells are grown at 37° C. with 5% CO2 in Dulbecco's modified Eagle's medium (DMEM) supplemented with 10% fetal bovine serum and 1% nonessential amino acids. […] After 48 hours, the medium is aspirated and the cells are washed 2 times with 1 mL MEM containing 10 mM LiCl. 0.5 mLMEM/LiCl then is added to each well and allowed to incubate at 37° C. for at least 15 minutes. […] For antagonist experiments, the appropriate antagonist is added simultaneously with carbachol (3 μM for m1, 5 μM for m3, and 3 μM for m5). After waiting at least 15 minutes, the TCA extract is applied to Dowex-formate columns (Biorad AG 1-X8 resin, formate form, 100-200 mesh). The wells are rinsed with 0.5 mL distilled H2 O and also applied to the columns. The columns are washed 4 times with 3 mL 5 mMmyo-inositol and then total [^3 H]-inositol phosphates are eluted into vials with two 2 mL washes of 1 mM ammonium formate containing 0.1M formic acid. Beckman Ready Gel scintillation cocktail (10 mL) is added and the samples counted in a Beckman 2800 scintillation counter. The efficacy of agonists is estimated from the maximal effect of the compounds on PI turnover (expressed as a percent of the stimulation produced by carbachol (1 mM)). EC50 and IC50 values are also calculated for both agonists and antagonists, respectively.

Structure (SMILES)	pIC50 (m2 receptor)	pIC50 (m4 receptor)	pIC50 (m1 receptor)	pIC50 (m3 receptor)	pIC50 (m5 receptor)	also measured
CCN1CCC(c2ccccc2)=C(C(=O)OC(C)C)C1 [Example 4, 1-Ethyl-1,2,5,6-tetrahydro-4-phenyl-3-pyridinecarboxylic acid, 1-methylethyl ester]	6.46	6.19	–	–	–	–
COC(=O)C1=C(C)CCN(C)C1 [E, 1,4-Dimethyl-1,2,5,6-tetrahydro-3-pyridinecarboxylic acid, methyl ester]	4.98	< 4.30	4.21	4.17	4.13	–
C[N+]1(C)CCC(OC(=O)C(c2ccccc2)c2ccccc2)CC1 [Example 4-DAMP, 4-diphenylacetoxy-N-methylpiperidine methobromide]	–	–	–	–	–	affinity for M3 receptors (M3 receptors): high affinity
O[Si](CCCN1CCCCC1)(c1ccccc1)C1CCCCC1 (stereo not shown) [hexahydrosiladifenidol]	–	–	–	–	–	affinity for M3 receptors (M3 receptors): high affinity
CCN1CC=C(c2ccccc2)C(C(=O)OCCc2ccc(Cl)cc2)C1 (stereo not shown) [Example 16, 1-Ethyl-1,2,3,6-tetrahydro-4-phenyl-3-pyridinecarboxylic acid, 2-(4-chlorophenyl)ethyl ester]	5.89	5.73	–	–	–	–
CCN(CC)CC#CCOC(=O)C(O)(c1ccccc1)C1CCCCC1 (stereo not shown) [oxybutynin]	–	–	–	–	–	side effects limiting use [1]: mydriasis, dry mouth
CN1CCN(CC(=O)N2c3ccccc3C(=O)Nc3cccnc32)CC1 [pirenzepine]	–	–	–	–	–	exercise tolerance [2]: improve exercise tolerance
CCN(CC)CC1CCCCN1CC(=O)N1c2ccccc2C(=O)Nc2cccnc21 (stereo not shown) [AF-DX 116]	–	–	–	–	–	affinity for M2 receptors (M2 receptors): high affinity
CCCCC1=C(C(=O)OC)CN(CCC)CC1 [F, 1-Propyl-1,2,5,6-tetrahydro-4-butyl-3-pyridinecarboxylic acid, methyl ester]	5.27	4.30	4.76	4.83	4.38	–
COc1ccccc1CNCCCCCCNCCCCCCCCNCCCCCCNCc1ccccc1OC [methoctramine]	–	–	–	–	–	affinity for M2 receptors (M2 receptors): high affinity
CCN1CCC(c2ccccc2)=C(C(=O)NC)C1 [D, 1-Ethyl-1,2,5,6-tetrahydro-4-phenyl-N-methyl-3-pyridinecarboxamide]	4.46	4.14	4.68	4.41	4.31	–
CCN1CCC(c2ccccc2)=C(C(=O)N(C)C)C1 [C, 1-Ethyl-1,2,5,6-tetrahydro-4-phenyl-N,N-dimethyl-3-pyridinecarboxamide]	4.91	4.87	5.30	5.05	5.22	muscarinic antagonism (in words) (Hm1): potent antagonists
